Measured values as given in patent publication US11708348B2, “Protease inhibitors for treatment of coronavirus infections” (The Scripps Research Institute, priority 2021, dated 2023).

Test system: SARS-CoV-2 strain USA-WA1/2020
Assay: microbe, parasite or virus in culture
Format: cell-based
Conditions: Severe acute respiratory syndrome coronavirus 2, HeLa-ACE2, 24 h, HeLa-ACE2 cells, SARS-CoV-2 infection, 24 h; class symbols; read-out: EC50, uM (Hela)

SMILES	EC50 [µM]
O=C1NCC[C@H]1C[C@H](NC(=O)[C@@H]1CC2(CC2)CN1C(=O)[C@H](O)Cc1ccccc1)C(=O)COC(F)(F)F [Compound 398, (S)-5-((R)-2-hydroxy-3-phenylpropanoyl)-N-((S)-3-oxo-1-((S)-2-oxopyrrolidin-3-yl)-4-(trifluoromethoxy)butan-2-yl)-5-azaspiro[2.4]heptane-6-carboxamide]	0.05 to 0.2
O=C(Nc1ccccc1F)C(=O)N[C@@H](CC1CCCCC1)C(=O)N[C@@H](C[C@@H]1CCNC1=O)C(=O)COc1c(F)c(F)cc(F)c1F [Compound 61, N1-((S)-3-cyclohexyl-1-oxo-1-(((S)-3-oxo-1-((S)-2-oxopyrrolidin-3-yl)-4-(2,3,5,6-tetrafluorophenoxy)butan-2-yl)amino)propan-2-yl)-N2-(2-fluorophenyl)oxalamide]	< 0.05

Same assay, conditions: Severe acute respiratory syndrome coronavirus 2, HeLa-ACE2, 24 h, HeLa-ACE2 cells, SARS-CoV-2 infection, 24 h; read-out: EC50, uM (Hela)

SMILES	EC50 [µM]
O=C(N[C@@H](CC1CC1)C(=O)N[C@@H](C[C@@H]1CCNC1=O)C(=O)COC(F)(F)F)c1nnc(Nc2ccccc2)o1 [Compound 461, N-((S)-3-cyclopropyl-1-oxo-1-(((S)-3-oxo-1-((S)-2-oxopyrrolidin-3-yl)-4-(trifluoromethoxy)butan-2-yl)amino)propan-2-yl)-5-(phenylamino)-l,3,4-oxadiazole-2-carboxamide]	0.2 to 0.5
CNC(=O)N[C@H](CC(C)C)C(=O)N1CC2(CC2)C[C@H]1C(=O)N[C@@H](C[C@@H]1CCNC1=O)C(=O)COC(F)(F)F [Compound 435, (S)-5-((methylcarbamoyl)-D-leucyl)-N—((S)-3-oxo-1-((S)-2-oxopyrrolidin-3-yl)-4-(trifluoromethoxy)butan-2-yl)-5-azaspiro[2.4]heptane-6-carboxamide]	0.2 to 0.5
CC1(C)[C@@H]2[C@@H](C(=O)N[C@@H](C[C@@H]3CCNC3=O)C(=O)COC(F)(F)F)N(C(=O)C(=O)Nc3ccccc3F)C[C@@H]21 [Compound 489, (1R,2S,5S)-3-(2-((2-fluorophenyl)amino)-2-oxoacetyl)-6,6-dimethyl-N-((S)-3-oxo-1-((S)-2-oxopyrrolidin-3-yl)-4-(trifluoromethoxy)butan-2-yl)-3-azabicyclo[3.1.0]-hexane-2-carboxamide]	< 0.05
CC(C)(C)c1cccc(C(C)(C)C(=O)N2CC3(CC3)C[C@H]2C(=O)N[C@@H](C[C@@H]2CCNC2=O)C(=O)COC(F)(F)F)c1 [Compound 455, (S)-5-(2-(3-(tert-butyl)phenyl)-2-methylpropanoyl)-N-((S)-3-oxo-1-((S)-2-oxopyrrolidin-3-yl)-4-(trifluoromethoxy)butan-2-yl)-5-azaspiro[2.4]heptane-6-carboxamide]	0.05 to 0.2
O=C1NCC[C@H]1C[C@H](NC(=O)[C@@H]1CC2(CC2)CN1C(=O)c1cc(F)cc(F)c1)C(=O)COC(F)(F)F [Compound 699, (S)-5-(3,5-difluorobenzoyl)-N-((S)-3-oxo-l-((S)-2-oxopyrrolidin-3-yl)-4-(trifluoromethoxy)butan-2-yl)-5-azaspiro[2.4]heptane-6-carboxamide]	0.05 to 0.2
C=CCCC(=O)N1CC2(CC2)C[C@H]1C(=O)N[C@@H](C[C@@H]1CCNC1=O)C(=O)COC(F)(F)F [Compound 690, (S)-N-((S)-3-oxo-1-((S)-2-oxopyrrolidin-3-yl)-4-(trifluoromethoxy)butan-2-yl)-5-(pent-4-enoyl)-5-azaspiro[2.4]heptane-6-carboxamide]	0.05 to 0.2
CN(C(=O)C(=O)NC(C)(C)C)[C@H](C(=O)N[C@@H](C[C@@H]1CCNC1=O)C(=O)COC(F)(F)F)C1CCCC1 [Compound 529, N1-(tert-butyl)-N2-((S)-1-cyclopentyl-2-oxo-2-(((S)-3-oxo-1-((S)-2-oxopyrrolidin-3-yl)-4-(trifluoromethoxy)butan-2-yl)amino)ethyl)-N2-methyloxalamide]	0.05 to 0.2
